Test results as given in patent publication US12264145B2, “Crystal form F of trelagliptin and preparation method thereof” (GUANGDONG UNIVERSITY OF TECHNOLOGY, priority 2023, dated 2025).
Values after ≈ are worked out from the molar mass of the structure shown.

Legend:
Format in all cases: physicochemical
[1] = Equilibrium solubility of trelagliptin crystal forms in different dissolution media (UV-vis at 279 nm); details: for Solubility / solubility at 24 h: 24 h; for solubility at 24 h: 37 °C, thermodynamic from solid
[2] = Strong light irradiation stability test (XRPD); details: illuminance 4500 lx±500 lx for 10 d, XRPD on day 5 and day 10
Method: (§1) According to the Guidelines for Stability Tests of Active Pharmaceutical Ingredients (APIs) and Formulations, the stability of the novel crystal form F of trelagliptin was tested.
Strong light irradiation test: The novel crystal form F of trelagliptin was spread in a petri dish and then placed in a strong light irradiation test chamber with illuminance of 4500 lx±500 lx for 10 d, where on day 5 and day 10, a sample was taken and subjected to XRPD analysis to determine whether the crystal form was stable.

Moisture absorption = details: 80% RH, 25° C., 24 h
Method: The dried novel crystal form F of trelagliptin prepared in this example was spread in a weighing bottle, then placed in a constant-temperature and constant-humidity incubator with a humidity of 80% RH and a temperature of 25° C. for 24 h, and then weighed.

[3] = High-temperature stability test (XRPD); details: 60° C. for 10 d, XRPD on day 5 and day 10
Method: as §1
High-temperature test: The novel crystal form F of trelagliptin was spread in a petri dish and then placed in a drying oven at 60° C. for 10 d, where on day 5 and day 10, a sample was taken and subjected to XRPD analysis to determine whether the crystal form was stable.

[4] = High-humidity stability test (XRPD); details: relative humidities of 90% and 75% at 25° C. for 10 d, XRPD on day 5 and day 10
Method: as §1
High-humidity test: The novel crystal form F of trelagliptin was spread in petri dishes, and then the petri dishes were placed in constant-temperature and constant-humidity incubators respectively with relative humidities of 90% and 75% at 25° C. for 10 d, where on day 5 and day 10, a sample was taken and subjected to XRPD analysis to determine whether the crystal form was stable.

Row | Solubility ([1]; buffer solution pH = 1.2, 37° C.) [mg/mL] | Solubility ([1]; buffer solution pH = 7.4, 37° C.) [mg/mL] | solubility at 24 h ([1]; deionized water, water) [mg/mL] | Solubilities compared with the original crystal form I ([1]; deionized water, pH 6.8, pH 7.4 and pH 1.2 buffer solutions) | Solubility ([1]; sodium phosphate buffer solution pH = 6.8, 37° C.) [mg/mL] | Stability of the crystal form [2] | Weight gain (moisture absorption) (Moisture absorption) | Stability of the crystal form [3] | Stability of the crystal form [4] | solubility at 24 h ([1]; buffer solution, pH 1.2, simulated gastric fluid, buffer solution pH = 1.2, 37° C.) [mg/mL] | Structure (SMILES)
1 | 73.61 (≈ 206 mM) | 30.54 (≈ 85.5 mM) | 8.51 (≈ 23.8 mM) | significantly-higher solubilities | 32.78 (≈ 91.7 mM) | no impact on the stability | less than 0.4% | no impact on the stability | no impact on the stability | – | Cn1c(=O)cc(N2CCC[C@@H](N)C2)n(Cc2cc(F)ccc2C#N)c1=O [Crystal form F, trelagliptin]
2 | – | – | – | – | – | – | – | – | – | 42.7 (≈ 119 mM) | Cn1c(=O)cc(N2CCC[C@@H](N)C2)n(Cc2cc(F)ccc2C#N)c1=O [Crystal form I, trelagliptin]
